From patent US8324188B2, “Combinations of ET-18-O-CH3and anti-cancer agents for the treatment of cancer” (priority 2006, dated 2012)
Several values for one entry are separate records, joined by “and”; a condition that tells them apart may be missing. Identical values can stand only once.

Columns and labels:
LN-229 = assay: WST-1 proliferation assay, LN-229; format: cell-based; conditions: Homo sapiens
Description: 2000 cells were plated in each well of 96-well flat bottom plates, and incubated overnight at 37 °C in 5% CO2. The growth of plated cells was measured by adding […] of WST-1 reagent (Roche Applied Sciences, Germany) to 3 control wells and measuring the absorbance at 650 nm and at 450 nm, respectively, with a SpectraMax250 plate reader. If the OD650-OD450 values were above 0.5, the remainder of the plate was used for incubation with AP-121, other pharmacological agents or solvent control for 96 hours.
After this incubation, VVST-1 reagent was added to the wells and OD650-OD450 values were calculated as before. six wells were assayed for each conditions and standard deviation was determined: all experiments were performed at least three times independently. After elucidation of individual IC50 values for each compound, the simultaneous combination treatment of AP-121 and the chemotherapeutic agent at their IC50 ratio was performed; combination index (CI) was determined by Calcusyn software package (Biosoft, Ferguson, Mo.). Data were evaluated by calculating the means of the combination index (CI), where a CI of <0.3 indicates a strong synergistic effect, 0.3<CI<0.7 a synergistic effect, 0.7<CI<0.9 moderate synergy, 0.9<CI<1 additive effect and CI>1 antagonistic effect, respectively.
For the AP-121 cell proliferation drug combination measurements, the ED50 was determined for each drug. Six different concentrations of each drug were used in combinations index measurements and compared to +/− cells, and compared to controls without compound. Each combination was repeated 6 times at 2 different time points (24 and 96 hours), each of the above experiments was repeated 3 times to obtain valid results.

HCC827 (FAS positive) = assay: WST-1 proliferation assay, HCC827; format: cell-based, human; conditions: single agent, per experiment line
Description: 2000 cells were plated in each well of 96-well flat bottom plates, and incubated overnight at 37 °C in 5% CO2. The growth of plated cells was measured by adding […] of WST-1 reagent (Roche Applied Sciences, Germany) to 3 control wells and measuring the absorbance at 650 nm and at 450 nm, respectively, with a SpectraMax250 plate reader. […] After this incubation, VVST-1 reagent was added to the wells and OD650-OD450 values were calculated as before. six wells were assayed for each conditions and standard deviation was determined: all experiments were performed at least three times independently. […] DDP and GMZ were both purchased from Sigma-aldrich Corp., St. Louis, Mo., USA. The following cell lines were used: A549 (FAS negative), NCI-H460 (FAS positive), and HCC827 (FAS positive), all obtained from the ATTC, Rockville, Md., USA.

[1] = tested on: LNCaP androgen-sensitive human prostate adenocarcinoma cells; assay: trypan blue dye exclusion, living LNCaP cells; format: cell-based
Description: FIG. 1. Depicts the in vitro effects of 1-O-octadecyl-2-O-methyl-glycero-3-phosphocholine (final concentration 10 μM), (ionizing) radiation (absorbed dose of 5 Gray units; indicated as “RT”), and a combination thereof on programmed cell death (apoptosis) and the survival rate of LNCaP androgen-sensitive human prostate adenocarcinoma cells. Apoptosis was determined using the Apo-ONE™ Homogenous Caspase-317 Assay, Promega, Inc., Madison, Wis., USA according to the manufacturers instructions. The percentage of living cancer cells was estimated by means of trypan blue dye exclusion as described (Freshney, R. I. (1994) Culture of Animal Cells: A Manual of Basic Technique. 3rd Ed. Wiley-Liss. New York. USA). The cells were exposed to radiation six hours after (FIG. 1A), concomitantly with (FIG. 1B), or six hours before administration of 1-O-octadecyl-2-O-methyl-glycero-3-phospho-choline (FIG. 1C). The caspase assay was performed 12 hours after exposure to radiation. The respective data shown represent the average of two independent experiments.
First, the in vitro effects of 1-O-octadecyl-2-O-methyl-glycero-3-phosphocholine, (ionizing) radiation, and a combination thereof on programmed cell death (apoptosis) and the survival rate of LNCaP androgen-sensitive human prostate adenocarcinoma cells were measured. The LNCaP cell line was established from a metastatic lesion of the adenocarcinoma. The cells were treated with a final concentration of 10 μM 1-O-octadecyl-2-O-methyl-glycero-3-phosphocholine and (ionizing) radiation corresponding to an absorbed dose of 5 Gray units.
Apoptosis was determined using the Apo-ONE™ Homogenous Caspase-3/7 Assay, Promega, Inc., Madison, VV1, USA according to the manufacturers instructions. The percentage of living tumor cells was estimated by means of trypan blue dye exclusion as described (Freshney, R. I. (1994) Culture of Animal Cells: A Manual of Basic Technique. 3rd Ed. Wiley-Liss. New York. USA)
The cells were exposed to radiation six hours after (FIG. 1A), concomitantly with (FIG. 1B), or six hours before administration of 1-O-octadecyl-2-O-methyl-glycero-3-phospho-choline (FIG. 1C). The caspase assay was performed 12 hours after exposure to radiation. The respective data shown represent the average of two independent experiments.

LNCaP cells = assay: flow cytometric analysis of annexin V-PE positive / 7-AAD negative LNCaP cells; format: cell-based, human
Description: In a further approach, 10 μM 1-O-octadecyl-2-O-methyl-glycero-3-phosphocholine (final concentration; “CHEM”) and (ionizing) radiation (5 Gray units; “RT”) were administered simultaneously to the LNCaP cells but the subsequent incubation period was extended to 24 hours. Apoptosis was measured using the Apo-ONE™ Homogenous Caspase-3/7 Assay as described above and expressed as relative fluorescence units (RFLU). The percentage of apoptotic cells was determined by flow cytometric analysis of annexin V-PE positive-stained and 7-AAD (7-Amino ActinomycinD) negative-stained cells (both purchased from BD Biosciences, San Jose, Calif., USA) according to established standard protocols. The data represent means±SEM from three independent experiments.
Next, the interaction of 1-O-octadecyl-2-O-methyl-glycero-3-phosphocholine administration (“CHEM”) and androgen deprivation (“AD”) was investigated. LNCaP cells were deprived of androgen for two days by charcoal absorption of serum according to established procedures well known in the art. CHEM was added in a final concentration of 5 μM and 10 μM, respectively.
Apoptosis was measured using the Apo-ONE™ Homogenous Caspase-3/7 Assay as described above and expressed as relative fluorescence units (RFLU). The percentage of apoptotic cells was determined via annexin V-PE/7-AAD staining as described above. The caspase-317 assay and annexin staining were performed 22 hours after CHEM treatment.

[2] = tested on: androgen-insensitive LNCaP C4-2; assay: apoptosis in LNCaP C4-2 cells; format: cell-based, human; conditions: data not shown

IC50 (HCC827 (FAS positive)): 2400 nM and 850 nM and 1600 nM
Structure (SMILES): CCCCCCCCCCCCCCCCCCOCC(COP(=O)([O-])OCC[N+](C)(C)C)OC (racemic) [AP-121, 1-O-octadecyl-2-O-methyl-glycero-3-phosphocholine]
IC50 (LN-229): 4300 nM
survival of the cells ([1]; 10 μM administered six hours after radiation (5 Gray), combined treatment (FIG. 1C)): about 40%
survival of the tumor cells ([1]; 10 μM administered six hours prior to radiation (5 Gray), combined treatment, untreated controls about 85% (FIG. 1A)): about 45%
survival rate ([1]; 10 μM concomitant with radiation (5 Gray), untreated controls about 86% (FIG. 1B)): about 55%
survival rate ([1]; 10 μM, individual chemical treatment (FIG. 1B)): about 50%
survival rate ([1]; 10 μM, individual chemical treatment (FIG. 1C)): about 45%
survival rate ([1]; 10 μM, individual treatment without radiation (FIG. 1A)): about 60%
% Annexin V-PE pos. cells (LNCaP cells; AD (androgen deprivation, two days) + 5 μM CHEM, AD alone 12.6): 15.4%
% Annexin V-PE pos. cells (LNCaP cells; AD + 10 μM CHEM): 27.4%
% Annexin V-PE pos. cells (LNCaP cells; AD + R1881 (two days prior) + 5 μM CHEM): 14.6%
% Annexin V-PE pos. cells (LNCaP cells; AD + R1881 (two days prior) + 10 μM CHEM): 21.6%
% Annexin V-PE pos. cells (LNCaP cells; CHEM 10 μM + RT 5 Gray simultaneously, 24 hours, means±SEM, p < 0.0001 vs CHEM and RT): 31.7 ± 1.0 %
% Annexin V-PE pos. cells (LNCaP cells; CHEM 10 μM alone, 24 hours, means±SEM, three experiments, Control 3.6 ± 0.2): 18.6 ± 1.0%
% Annexin V-PE pos. cells (LNCaP cells; Contr. + 5 μM CHEM, 22 hours after CHEM, Contr. 9.6): 13.0%
% Annexin V-PE pos. cells (LNCaP cells; Contr. + 10 μM CHEM, 22 hours after CHEM): 17.5%
apoptotic response (LNCaP cells; androgen-deprived LNCaP cells, 5 and 10 μM, not reversed by synthetic androgen): dose-dependent significant increase
apoptosis in CHEM+RT treated cells [2]: enhancement of apoptosis
